Reference: publication PMC12298539, “Applying Unbiased, Functional Criteria Allows Selection of Novel Cyclic Peptides for Effective Targeted Drug Delivery to Malignant Prostate Cancer Cells” (Pharmaceutics, 2025)

Assays:
[1] = tested on: 22RV1; assay: Growth inhibition IC50, parent line; assay type: cell-based; conditions: Homo sapiens; 22RV1 parent line
Method: (§1) PrC cell lines resistant to Estramustine (ESM) were developed as the clinical use of this drug induces significant side effects and drug resistance. The procedure of Mohr was used as described in the Supplementary Information.
(§2) Supplementary Information
(§3) Development of drug resistant cell lines
(§4) Cells were seeded in 3 flasks. […]
(§5) parent cell line was calculated. […]
(§6) to the drug within 2–4 weeks.
(§7) Table S1: IC50 values for parent and Estramustine-resistant prostate cancer cell lines are also multidrug re-sistant to Camptothecin and Docetaxel. Drugs
(§8) Estramustine Camptothecin Docetaxel […]

[2] = tested on: DU145; assay: Growth inhibition IC50, parent line; assay type: cell-based; conditions: Homo sapiens, DU-145
Method: as §1, §2, §3, §4, §5, §6, §7, §8

[3] = tested on: PC3; assay: Growth inhibition IC50, parent line; assay type: cell-based; conditions: Homo sapiens, PC-3
Method: as §1, §2, §3, §4, §5, §6, §7, §8

[4] = tested on: Estramustine-resistant 22RV1; assay: Growth inhibition IC50, Estramustine-resistant line; assay type: cell-based; conditions: Homo sapiens; 22RV1 Estramustine-resistant line
Method: as §1, §2, §3, §4, §5, §6, §7, §8

[5] = tested on: Estramustine-resistant DU145; assay: as above; assay type: cell-based; conditions: Homo sapiens, DU-145
Method: as §1, §2, §3, §4, §5, §6, §7, §8

[6] = tested on: Estramustine-resistant PC3; assay: as above; assay type: cell-based; conditions: Homo sapiens
Method: as §1, §2, §3, §4, §5, §6, §7, §8

[7] = tested on: PrC cell lines; assay: Dose-response of PrC cell lines to ESM; assay type: cell-based; conditions: Homo sapiens; range over the PrC cell lines, Figure S2; read-out: IC50s for ESM
Method: as §1
ESM-resistant lines developed following more than 6 months of exposure to the drug.
as §2, §3
Cells were seeded in 3 flasks.
parent cell line was calculated.
as §6

[8] = tested on: PC3 tumors; assay: Xenograft anti-tumor efficacy; assay type: in vivo, athymic nu/nu mice; conditions: 5 mg/kg, tail vein, twice weekly for four weeks, n = 5
Method: As described above, a xenograft tumor model was established by injecting mice with PC3 cells. Tumor growth was monitored regularly, and mice were randomized into one of four groups (n = 5 per group) when their tumor volume reached approximately 140 mm^3 (approx. day 16 post-injection) so as to ensure the equal distribution of tumor burden among the groups. The mice were treated twice weekly for four weeks via tail vein injection as follows. Group 1 (Control) received vehicle only; Group 2 (free SN-38) received SN38 at a dose of 5 mg/kg; Group 3 (PDC 10 mg/kg) received PrC10-SN38 at a dose of 10 mg/kg; Group 4 (PDC 20 mg/kg) received PrC10-SN38 at a dose of 20 mg/kg. Tumor volume was measured regularly until day 44 from the initiation of treatment, after which all mice were euthanized via CO2 inhalation.

Question: Which results are given for `C[C@]12CC[C@@H]3c4ccc(OC(=O)N(CCCl)CCCl)cc4CC[C@H]3[C@@H]1CC[C@@H]2O` [Estramustine]?
Answer: IC50 [1]: 8000 nM; IC50 [2]: 8000 nM; IC50 [3]: 10000 nM; IC50 [4]: 30000 nM; IC50 [5]: 8000 nM; IC50 [6]: 24000 nM; IC50 [7]: 1400 to 1750 nM

Question: With `CC[C@@]1(O)C(=O)OCc2c1cc1n(c2=O)Cc2cc3ccccc3nc2-1` [Camptothecin] as the compound, how does the IC50 [1] read?
Answer: 7 nM

Question: What about the IC50 [2] of the same compound?
Answer: 10 nM

Question: And the IC50 [3]?
Answer: 45 nM

Question: And the IC50 [4]?
Answer: 23 nM

Question: What about the IC50 [5] of the same compound?
Answer: 100 nM

Question: What about the IC50 [6] of the same compound?
Answer: 200 nM

Question: Which results are given for `CC(=O)O[C@@]12CO[C@@H]1C[C@H](O)[C@@]1(C)C(=O)[C@H](O)C3=C(C)[C@@H](OC(=O)[C@H](O)[C@@H](NC(=O)OC(C)(C)C)c4ccccc4)C[C@@](O)([C@@H](OC(=O)c4ccccc4)[C@H]21)C3(C)C` [Docetaxel]?
Answer: IC50 [1]: 3 nM; IC50 [2]: 3 nM; IC50 [3]: 4 nM; IC50 [4]: 4 nM; IC50 [5]: 5 nM; IC50 [6]: 10 nM

Question: `CCc1c2c(nc3ccc(O)cc13)-c1cc3c(c(=O)n1C2)COC(=O)[C@]3(O)CC` [free SN-38, SN-38] was tested. Which tumor growth [8] did it give?
Answer: did not inhibit tumor growth
